Read-outs that look alike come from different tables or passages of the source.
What was measured:
gliadin = assay: Solubility of gliadin in ionic solutions (excess gliadin, Wheat/Gluten (Gliadin) ELISA Kit); assay type: physicochemical
Protocol: Gliadin is a hydrophobic protein present in gluten of wheat. Unless specifically stated, gliadin (G3375, Sigma-Aldrich; CAS No. 9007-90-3) or was used in the following tests.
First of all, ionic solutions of [DMePIm][OMs] with a concentration of 0.1 wt %, 1 wt %, 2 wt %, 5 wt % and 10 wt % in water were prepared. 3 grams (g) of gliadin (excess amount) was added into 10 mL of each [DMePIm][OMs] ionic solution, mixed homogenously and stood still for 5 min to give sample solutions for Test Example 1. All sample solutions were centrifuged at 8500 rpm for 3 min and filtered with a filter with 0.22 μm pore size. Water (0 wt %) was used as the control group. After that, Wheat/Gluten (Gliadin) ELISA Kit (Crystal chem, AOAC No. 011804) was used to determine the concentration and solubility of gliadin. Since the examination of the Wheat/Gluten (Gliadin) ELISA Kit is about 100 ppm, the gliadin concentration was determined by diluted sample solutions with at least 50-fold dilution by the corresponding ionic solution, in order to calculate the gliadin concentration of the sample solutions.
Similar with Test Example 1, except that 3 g of gliadin was added into 10 mL of 1 wt % ionic solution of [DMeIm][OMs](value “a” of Formula I is 0), [TMeIm][OMs] (a=1), [DMePrIm][OMs] (a=3), [DMePIm][OMs] (a=5), [DMeHpIm][OMs] (a=7), [DMeNnIm][OMs] (a=9) or [DMeDdIm][OMs] (a=12). […] (a=5), [DMeHpIm][OMs] (a=7), [DMeNnIm][OMs] ([…]) and [DMeDdIm][OMs] (a=12) ionic solutions, in which the corresponding groups attached on 3-position of the 1,2-dimethyl imidazolium had different carbon numbers (value “a” of Formula I) of 5, 7, 9 and 12, respectively. The [DMeDdIm][OMs]
Similar with Test Example 1, except that 3 g of gliadin was respectively added into 10 mL of 1 wt % ionic solutions of [DMePIm][Cl], [DMePIm][F], [DMePIm][OMs], [DMePIm][NO3], [DMePIm][H2PO4] and [DMePIm][HSO4].

[1] = system: Mouse N2a neuroblastoma cells (N2a cells); assay: Biocompatibility, XTT cell survival test; assay type: cell-based; details: 0.1, 1, 2, 5 and 10 wt % in medium, 6 h, FIG. 7
Protocol: Mouse N2a neuroblastoma cells (N2a cells) were cultured and maintained in DMEM High Glucose with L-glutamine and sodium pyruvate (DMEM-HPA-P10, Capricorn Scientific) containing 10% fetal bovine serum (FBS). The N2a cells were seeded in a 6-well plate with a density of 2×10^5 cells/well overnight. Then the medium was replaced with a testing DMEM High Glucose medium containing 0.1 wt %, 1 wt %, 2 wt %, 5 wt % and 10 wt % of [DMePIm][OMs] and the cells were incubated in an incubator (37° C., 5% CO2 humidified atmosphere) for 6 h. The testing medium was removed, the cells were washed, and new DMEM High Glucose containing 10% FBS was added and incubated for another 12 h. After that, the cells were subjected to XTT test (X12223, purchased from Thermo Fisher) for determining cell survival rate.

CCCCCCCCC[n+]1ccn(C)c1C.CS(=O)(=O)[O-] [[DMeNnIm][OMs], [1,2-dimethyl, 3-nonyl imidazolium][methanesulfonyl]]
solubility of gliadin in ionic solutions with different cations (gliadin): higher solubility

CCCCCCC[n+]1ccn(C)c1C.CS(=O)(=O)[O-] [[DMeHpIm][OMs], [1,2-dimethyl, 3-heptyl imidazolium][methanesulfonyl]]
solubility of gliadin in ionic solutions with different cations (gliadin): higher solubility

CCCCCCCCCCCC[n+]1ccn(C)c1C.CS(=O)(=O)[O-] [[DMeDdIm][OMs], [1,2-dimethyl, 3-dodecyl imidazolium][methanesulfonyl]]
viscosity of ionic solution (gliadin; 1 wt % ionic solution): higher viscosity

CCCCC[n+]1ccn(C)c1C [[DMePIm][OMs], [1,2-dimethyl, 3-pentyl imidazolium][methanesulfonyl]]
concentration of gliadin over time (gliadin; 1 wt % ionic solution, 1-30 min, FIG. 2): reached its maximum solubility shortly
solubility of gliadin in ionic solutions with different cations (gliadin; 1 wt % ionic solution, FIG. 3): higher solubility
solubility of gliadin in ionic solutions with different anions (gliadin; 1 wt % ionic solution, FIG. 4): greatest solubility
survival rates of cells [1]: high

Reference: patent publication US20230174561A1, “IONIC COMPOUND AND COMPOSITION THEREOF FOR HYDROPHOBIC PROTEIN EXTRACTION; AND ANTI-NONSPECIFIC PROTEIN ADSORPTION ZWITTERIONIC COMPOUND AND ELEMENT WITH ANTI-NONSPECIFIC PROTEIN ADSORPTION LAYER COMPRISING THE SAME” (priority 2021, published 2023)
